Data: patent US7893072B2, “Trp-p8 active compounds and therapeutic treatment methods” (Genentech, Inc., priority 2003, dated 2011)
Like-named read-outs stand apart in the source and are kept apart here.

Columns and labels:
293/Trp-p8.clone 10 = test: IC50 on 293/Trp-p8.clone 10; type: cell-based, human; details: read-out: IC50 293/Trp-p8.c10
Description: (§1) Human Cell Killing in vitro by Compounds that Activate Trp-p8. Referring to the Figures, in FIG. 1 the effectiveness of selected cool-genic compounds in human cell killing was evaluated. The order and potency of cool-genic compounds were compared in two related human cell lines, one was 293 cells expressing Trp-p8 and a second was matched 293 cells lacking (not expressing) Trp-p8 used as a control. There were about 50,000 cells per well at plating. The cool-genic compounds were added at plating. The cells were treated by exposing the cells to the individual compounds at varying concentrations over about 0.1 to about 1,000 microM for 72 hours. […] FIGS. 1A and 1C show the response of cells expressing Trp-p8 and treated with the indicated numbered or named coolgenic compounds. FIGS. 1B and 1D show the response of cells without (not expressing) Trp-p8 and also treated with the indicated coolgenic compounds. […] Compound IIa4-1 had the best kill (IC50<1 microM) for cells expressing Trp-p8.

293/Trp-p8.clone 18 = test: IC50 on 293/Trp-p8.clone 18; type: cell-based, human; details: read-out: IC50 293/Trp-p8.c18
Description: as §1

Trp-p8 = biological target: T1, Trp-p8 (Homo sapiens, UniProt Q7Z2W7); test: Calcium ion uptake / flux (FLIPR) in cells expressing Trp-p8; type: cell-based; details: for Peak (FLIPR): maximum calcium ion flux at 10 microM
T1 construct: expressed in transfected cells; host or cells: 293 and PC3 cells expressing Trp-p8 (non-expressing controls: 293, PC3, PC3/neo)
From the text: General methods and materials disclosed in R. Skyryma, et al., J. Physiology, 2000, 527.1, 71-83, for assessing and measuring calcium ion flux or cell uptake, and induction of apoptosis were adapted for use in the present disclosure and as illustrated herein. Other test methods and procedures such as described below, including cell line culturing, transfection, and in vivo and in vitro tumor growth inhibition, are readily apparent to one of ordinary skill in the art upon comprehending the disclosure.
Calcium ion uptake experiments were conducted as follows. Calcium uptake was measured for cells expressing Trp-p8 tumor antigen and for cells not expressing Trp-p8 tumor antigen after each cell line was contacted with cool-genic compounds of the present disclosure. […] Cells not expressing tumor antigen had essentially no observable calcium uptake over all of the cool-genic compound concentrations. […] Cell lines included non-expressing lines: 293, PC3, and PC3/neo; and tumor antigen expressing lines: […].

[1] = system: 293 cells expressing Trp-p8; test: Human cell killing in vitro, 293 cells expressing Trp-p8; type: cell-based
Description: as §1

PC3/Trp-p8 = PC3/Trp-p8 cell killing; type: cell-based, human
PC3/Trp-p8.clone 21 = test: IC50 on PC3/Trp-p8.clone 21; type: cell-based; details: Homo sapiens, PC3/Trp-p8.clone 21, in duplicate

T1 sequence (Q7Z2W7 whole entry): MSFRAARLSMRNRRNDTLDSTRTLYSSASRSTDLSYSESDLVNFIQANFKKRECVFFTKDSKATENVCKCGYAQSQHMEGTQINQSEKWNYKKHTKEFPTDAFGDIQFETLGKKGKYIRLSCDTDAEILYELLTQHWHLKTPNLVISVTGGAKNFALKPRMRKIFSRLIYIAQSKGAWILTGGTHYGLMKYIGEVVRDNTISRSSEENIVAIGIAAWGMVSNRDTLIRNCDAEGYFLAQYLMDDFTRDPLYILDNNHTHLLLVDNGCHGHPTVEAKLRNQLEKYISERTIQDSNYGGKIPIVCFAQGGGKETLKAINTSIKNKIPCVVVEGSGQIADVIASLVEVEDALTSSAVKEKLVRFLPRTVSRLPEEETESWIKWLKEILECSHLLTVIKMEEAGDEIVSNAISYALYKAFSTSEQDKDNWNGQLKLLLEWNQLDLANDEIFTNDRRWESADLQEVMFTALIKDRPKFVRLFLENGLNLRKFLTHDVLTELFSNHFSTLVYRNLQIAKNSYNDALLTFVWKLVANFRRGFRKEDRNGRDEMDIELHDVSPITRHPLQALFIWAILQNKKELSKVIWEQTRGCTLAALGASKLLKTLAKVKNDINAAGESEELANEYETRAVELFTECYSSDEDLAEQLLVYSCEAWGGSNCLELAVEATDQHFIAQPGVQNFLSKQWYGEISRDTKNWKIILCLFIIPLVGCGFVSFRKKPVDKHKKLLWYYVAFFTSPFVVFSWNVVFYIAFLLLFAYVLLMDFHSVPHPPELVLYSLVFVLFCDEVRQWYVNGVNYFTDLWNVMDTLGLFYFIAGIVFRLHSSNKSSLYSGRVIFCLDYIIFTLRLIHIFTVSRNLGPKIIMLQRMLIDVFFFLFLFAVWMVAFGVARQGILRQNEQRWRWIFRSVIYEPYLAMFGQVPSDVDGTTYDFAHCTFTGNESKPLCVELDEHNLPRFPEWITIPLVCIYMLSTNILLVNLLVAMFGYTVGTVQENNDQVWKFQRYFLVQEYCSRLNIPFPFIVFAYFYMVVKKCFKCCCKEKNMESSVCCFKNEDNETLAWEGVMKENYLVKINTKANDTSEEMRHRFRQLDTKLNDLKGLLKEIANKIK

Row | Peak (FLIPR) (Trp-p8) | SMILES | IC50 (293/Trp-p8.clone 10; Homo sapiens) [nM] | IC50 (293/Trp-p8.clone 18; Homo sapiens) [nM] | further results
1 | – | CCC(C)c1ccc(NC(=O)[C@@H]2C[C@H](C)CC[C@H]2C(C)C)cc1 (some centres unmarked) [IIa4-10, 2-Isopropyl-5-methyl-cyclohexanecarboxylic acid(4-sec-butyl-phenyl)-amide] | 3590 | 1080 | –
2 | 25,100 | CC1CCC(C(C)C)C(C(=O)NC(C)(C)C)C1 (centres unmarked) [IIb-4] | – | – | 293/Trp-p8 Cell Killing [1]: Yes
3 | 29,000 | CCCCCP(=O)(C(C)CC)C(C)CC (centres unmarked) [IV-2] | – | – | –
4 | 9,600 | CC1CCC(C(C)C)C(C(=O)O)C1 (centres unmarked) [Compound V-1] | – | – | –
5 | 5,000 | CNC(=O)C(C)(C(C)C)C(C)C [III-1] | – | – | –
6 | 29,000 | CCOC(=O)CNC(=O)C1CC(C)CCC1C(C)C (centres unmarked) [XIII-1] | – | – | 293/Trp-p8 Cell Killing [1]: Yes; PC3/Trp-p8 Cell Killing (PC3/Trp-p8): Yes
7 | – | CC(C)[C@@H]1CC[C@@H](C)C[C@H]1C(=O)Nc1ccc(Cl)cc1 [IIa4-5] | 1990 | 17600 | –
8 | – | CC(C)c1ccc(NC(=O)[C@@H]2C[C@H](C)CC[C@H]2C(C)C)cc1 [IIa4-4] | 760 | 980 | IC50 (PC3/Trp-p8.clone 21): 3210 nM
9 | 31,000 | COc1ccc(NC(=O)C2CC(C)CCC2C(C)C)cc1 (centres unmarked) [IIa4-1, 2-Isopropyl-5-methyl-cyclohexanecarboxylic acid(4-methoxy-phenyl)-amide] | 420 | 580 | calcium uptake (Trp-p8; cells expressing Trp-p8, about 0.0001 to about 10 microM): particularly high calcium uptake; 293/Trp-p8 Cell Killing [1]: Yes; IC50 ([1]; Homo sapiens, HEK293, 72 hours, about 50,000 cells per well, read-out: IC50 (kill) for cells expressing Trp-p8): < 1000 nM; IC50 (293/Trp-p8.clone 18): 450 nM; PC3/Trp-p8 Cell Killing (PC3/Trp-p8): Yes; IC50 (PC3/Trp-p8.clone 21): 1640 nM
10 | 17,000 | CC1CCC(C(C)C)C(C(=O)OCCO)C1 (centres unmarked) [Compound V-2] | – | – | –
11 | – | Cc1cc(NC(=O)[C@@H]2C[C@H](C)CC[C@H]2C(C)C)ccc1C(C)C [IIa6-4, 2-Isopropyl-5-methyl-cyclohexanecarboxylic acid(4-isopropyl-3-methyl-phenyl)-amide] | 5050 | 4370 | –
12 | – | COc1ccc(NC(=O)C2CC(C)CCC2C(C)C)cc1Cl (centres unmarked) [IIa6-2, 2-Isopropyl-5-methyl-cyclohexanecarboxylic acid(3-chloro-4-methoxy-phenyl)-amide] | – | – | IC50 (293/Trp-p8.clone 10): 3100 nM; IC50 (293/Trp-p8.clone 18): 2570 nM
13 | 22,000 | CCCCCCP(=O)(C(C)CC)C(C)CC (centres unmarked) [IV-3] | – | – | –
14 | 25,100 | CC1CCC(C(C)C)C(C(=O)NC(C)C)C1 (centres unmarked) [IIb-2] | – | – | 293/Trp-p8 Cell Killing [1]: Yes; PC3/Trp-p8 Cell Killing (PC3/Trp-p8): Yes
15 | 23,300 | CCC(C)NC(=O)C1CC(C)CCC1C(C)C (centres unmarked) [IIb-5] | – | – | –
16 | – | CC(C)[C@@H]1CC[C@@H](C)C[C@H]1C(=O)Nc1ccc(F)cc1 [IIa4-6] | 3580 | 3780 | –
17 | 20,000 | O=C1NC(c2cccc([N+](=O)[O-])c2)=CCN1c1ccccc1O [Icilin, 3-(2-Hydroxy-phenyl)-6-(3-nitro-phenyl)-3,4-dihydro-1H-pyrimidin-2-one, reference compound] | 79200 | – | –
18 | – | CCCc1ccc(NC(=O)[C@@H]2C[C@H](C)CC[C@H]2C(C)C)cc1 [IIa4-12, 2-Isopropyl-5-methyl-cyclohexanecarboxylic acid(4-propyl-phenyl)-amide] | 5650 | 4930 | IC50 (PC3/Trp-p8.clone 21): 12900 nM

Row | Peak (FLIPR) (Trp-p8) | SMILES | IC50 (293/Trp-p8.clone 10; Homo sapiens) [nM] | IC50 (293/Trp-p8.clone 18; Homo sapiens) [nM] | further results
19 | – | CC1CCC(C(C)C)C(C(=O)Nc2ccc3c(c2)CCC3)C1 (centres unmarked) [IIa6-3, 2-Isopropyl-5-methyl-cyclohexanecarboxylic acid indan-5-ylamide] | 1350 | 1710 | –
20 | 17,500 | CC1CCC(C(C)C)C(C(=O)OCCOCCO)C1 (centres unmarked) [Compound V-4] | – | – | –
21 | – | COc1ccc(NC(=O)[C@@H]2C[C@H](C)CC[C@H]2C(C)C)cc1F [IIa6-1] | 790 | 600 | –
22 | – | Cc1ccc(NC(=O)[C@@H]2C[C@H](C)CC[C@H]2C(C)C)cc1 [IIa4-7] | 1210 | 1140 | –
23 | – | COc1ccccc1NC(=O)[C@@H]1C[C@H](C)CC[C@H]1C(C)C [IIa8-1] | 16700 | 17600 | –
24 | – | CCc1ccc(NC(=O)[C@@H]2C[C@H](C)CC[C@H]2C(C)C)cc1 [IIa4-8] | 730 | 680 | –
25 | 25,100 | CC1CCC(C(C)C)C(C(=O)NC(C)(C)CO)C1 (centres unmarked) [IIb-3] | – | – | 293/Trp-p8 Cell Killing [1]: Yes; PC3/Trp-p8 Cell Killing (PC3/Trp-p8): Yes
26 | 25,000 | CCNC(=O)C1CC(C)CCC1C(C)C (centres unmarked) [IIb-1] | – | – | –
27 | 31,000 | CCCCCCCP(=O)(C(C)CC)C(C)CC (centres unmarked) [IV-1] | – | – | 293/Trp-p8 Cell Killing [1]: Yes
28 | – | COc1cccc(NC(=O)[C@@H]2C[C@H](C)CC[C@H]2C(C)C)c1 [IIa10-1] | 3800 | 3690 | –
29 | – | CC(C)[C@@H]1CC[C@@H](C)C[C@H]1C(=O)Nc1ccc(C(C)(C)C)cc1 [IIa4-11, 2-Isopropyl-5-methyl-cyclohexanecarboxylic acid(4-tert-butyl-phenyl)-amide] | 1230 | 1410 | –
30 | – | CC1CCC(C(C)C)C(C(=O)Nc2ccc(N3CCOCC3)cc2)C1 (centres unmarked) [IIa4-9, 2-Isopropyl-5-methyl-cyclohexanecarboxylic acid (4-morpholin-4-yl-phenyl)-amide] | 1280 | 1450 | –
31 | 25,000 | COC(=O)CNC(=O)C1CC(C)CCC1C(C)C (centres unmarked) [XIII-2] | – | – | –
32 | – | CC(C)[C@@H]1CC[C@@H](C)C[C@H]1C(=O)Nc1ccc(O)cc1 [IIa4-3] | 1230 | 1050 | IC50 (PC3/Trp-p8.clone 21): 4270 nM
33 | – | CC(C)[C@@H]1CC[C@@H](C)C[C@H]1C(=O)Nc1ccccc1 [IIa4-2] | 3210 | 3380 | –
34 | – | COc1ccc(NC(=O)[C@@H]2C[C@H](C)CC[C@H]2C(C)C)c(C)c1 [IIa12-1] | 1140 | 930 | –
35 | – | CC(C)[C@@H]1CC[C@@H](C)C[C@H]1C(=O)Nc1cccc(F)c1 [IIa10-2] | 6310 | 2910 | –
